Tests used:
Alternaria solani = Alternaria solani / tomato / leaf disc (early blight); type: in vivo; details: foliar, tomato leaf disks cv. Baby, inoculated 2 days after application, assessed 5-7 days after application, read-out: control of Alternaria solani (percent disease control compared to untreated)
Procedure: Example B1: Alternaria solani/Tomato/Leaf Disc (Early Blight) Tomato leaf disks cv. Baby are placed on agar in multiwell plates (24-well format) and sprayed with the formulated test compound diluted in water. The leaf disks are inoculated with a spore suspension of the fungus 2 days after application. The inoculated leaf disks are incubated at 23° C./21° C. […] […]-185.

[1] = tested on: Glomerella lagenarium (Colletotrichum lagenarium); test: Glomerella lagenarium (Colletotrichum lagenarium) / liquid culture (anthracnose); type: cell-based; details: Colletotrichum orbiculare, PDB potato dextrose broth, 24° C., 3-4 days after application, read-out: control of Glomerella lagenarium (inhibition of growth, photometric)
In short: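 Fungal growth inhibition measured photometrically 3-4 days post-application at 24° C. Spores were mixed directly into potato dextrose broth and dispensed onto test compound supplied in DMSO.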

[2] = tested on: Blumeria graminis f. sp. tritici (Erysiphe graminis f. sp. tritici); test: Blumeria graminis f. sp. tritici / wheat / leaf disc preventative (powdery mildew on wheat); type: in vivo; details: foliar, wheat leaf segments cv. Kanzler, inoculated 1 day after application, assessed 6-8 days after application, read-out: control of Blumeria graminis f. sp. tritici (percent disease control compared to untreated)
Text: Example B4: Blumeria graminis f. sp. tritici (Erysiphe graminis f. sp. tritici)/Wheat/Leaf Disc Preventative (Powdery Mildew on Wheat) Wheat leaf segments cv. Kanzler are placed on agar in a multiwell plate (24-well format) and sprayed with the formulated test compound diluted in water. The leaf disks are inoculated by shaking powdery mildew infected plants above the test plates 1 day after application. […] […]-192.

[3] = tested on: Monographella nivalis (Microdochium nivale); test: Monographella nivalis (Microdochium nivale) / liquid culture (foot rot cereals); type: cell-based; details: PDB potato dextrose broth, 24° C., 4-5 days after application, read-out: control of Monographella nivalis (inhibition of growth, photometric)
In short: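 Growth inhibition measured by photometry 4-5 days post-application at 24° C. Compound was dispensed as DMSO solution, then PDB broth containing conidia from cryogenic storage was added.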

[4] = tested on: Magnaporthe grisea (Pyricularia oryzae); test: whole plant or invertebrate; type: in vivo; details: foliar, read-out: control of Magnaporthe grisea (percent disease control compared to untreated)
Pyrenophora teres = Pyrenophora teres / barley / leaf disc preventative (net blotch); type: in vivo; details: foliar, barley leaf segments cv. Hasso, inoculated 2 days after application, assessed 5-7 days after application, read-out: control of Pyrenophora teres (disease control compared to untreated)
In short: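 Barley cv. Hasso leaf discs on agar were sprayed with diluted formulated compound, then inoculated with spore suspension 2 days later. Incubation at 20 °C, 65% rh, 12 h light/dark; disease control versus untreated assessed 5-7 days after application.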

Sclerotinia sclerotiorum = Sclerotinia sclerotiorum / liquid culture (cottony rot); type: cell-based; details: PDB potato dextrose broth, mycelia fragments, 24° C., 3-4 days after application, read-out: control of Sclerotinia sclerotiorum (inhibition of growth, photometric)
Procedure: Example B14: Sclerotinia sclerotiorum/Liquid Culture (Cottony Rot) Mycelia fragments of a newly grown liquid culture of the fungus are directly mixed into nutrient broth (PDB potato dextrose broth). After placing a (DMSO) solution of test compound into a microtiter plate (96-well format) the nutrient broth containing the fungal material is added. The test plates are incubated at 24° C. and the inhibition of growth is determined photometrically 3-4 days after application.

[5] = tested on: Mycosphaerella graminicola (Septoria tritici); test: Mycosphaerella graminicola (Septoria tritici) / liquid culture (Septoria blotch); type: cell-based; details: Zymoseptoria tritici, PDB potato dextrose broth, 24° C., 4-5 days after application, read-out: control of Mycosphaerella graminicola (inhibition of growth, photometric)
In short: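 Fungal growth inhibition was read photometrically 4-5 days after application. Compound was dosed from a DMSO solution into liquid cultures of spores in potato dextrose broth, incubated at 24° C.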

[6] = tested on: Botryotinia fuckeliana (Botrytis cinerea); test: Botryotinia fuckeliana (Botrytis cinerea) / liquid culture (gray mould); type: cell-based; details: Vogels broth, 24° C., 3-4 days after application, read-out: control of Botryotinia fuckeliana (inhibition of growth, photometric)
Procedure: Example B2: Botryotinia fuckeliana (Botrytis cinerea)/Liquid Culture (Gray Mould) Conidia of the fungus from cryogenic storage are directly mixed into nutrient broth (Vogels broth). After placing a (DMSO) solution of test compound into a microtiter plate (96-well format), the nutrient broth containing the fungal spores is added. The test plates are incubated at 24° C. and the inhibition of growth is determined photometrically 3-4 days after application. […] […]-190.

[7] = tested on: Phaeosphaeria nodorum (Septoria nodorum); test: Phaeosphaeria nodorum (Septoria nodorum) / wheat / leaf disc preventative (glume blotch); type: in vivo; details: Parastagonospora nodorum, foliar, wheat leaf segments cv. Kanzler, inoculated 2 days after application, assessed 5-7 days after application, read-out: control of Phaeosphaeria nodorum (percent disease control compared to untreated)
In short: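 Wheat cv. Kanzler leaf discs on agar were sprayed with formulated compound diluted in water and inoculated with spores 2 days later. Discs were kept at 20° C, 75% rh, 12 h light/dark; percent disease control versus untreated was scored 5-7 days after application.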

[8] = tested on: Mycosphaerella arachidis (Cercospora arachidicola); test: Mycosphaerella arachidis (Cercospora arachidicola) / liquid culture (early leaf spot); type: cell-based; details: PDB potato dextrose broth, 24° C., 4-5 days after application, read-out: control of Mycosphaerella arachidis (inhibition of growth, photometric)
In short: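 Conidia from cryogenic storage suspended in potato dextrose broth and added to compound in DMSO. Incubation at 24° C; growth inhibition read photometrically 4-5 days after application.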

[9] = tested on: Puccinia recondita f. sp. tritici; test: Puccinia recondita f. sp. tritici / wheat / leaf disc preventative (brown rust); type: in vivo; details: foliar, wheat leaf segments cv. Kanzler, inoculated 1 day after application, assessed 7-9 days after application, read-out: control of Puccinia recondita f. sp. tritici, preventative (percent disease control compared to untreated)
In short: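 Wheat leaf segments (cv. Kanzler) on agar were sprayed with formulated compound, then inoculated with spores 1 day later. Segments were incubated at 19 °C, 75% rh with 12 h light/dark. Percent disease control versus untreated was scored 7–9 days after application.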

COc1cnc(Nc2cc(F)cc(F)c2)nc1C(=O)NC1CCC1(C)C (stereo not drawn) [Compound P-10, 2-(3,5-difluoroanilino)-N-(2,2-dimethylcyclobutyl)-5-methoxy-pyrimidine-4-carboxamide]
≥ 80%: pest or weed control at 200 ppm (Alternaria solani) | inhibition at 20 ppm [1] | pest or weed control at 200 ppm [2] | inhibition at 20 ppm [3] | pest or weed control at 200 ppm [4] | pest or weed control at 200 ppm (Pyrenophora teres) | inhibition at 20 ppm (Sclerotinia sclerotiorum) | inhibition at 20 ppm [5]

COc1ccc(Nc2cc(F)cc(Cl)c2)nc1C(=O)NC(C)(C)C [Compound P-152, N-tert-butyl-6-(3-chloro-5-fluoro-anilino)-3-methoxy-pyridine-2-carboxamide]
≥ 80%: pest or weed control at 200 ppm (Alternaria solani) | inhibition at 20 ppm [6] | inhibition at 20 ppm [1] | pest or weed control at 200 ppm [2] | pest or weed control at 200 ppm [7] | inhibition at 20 ppm [3] | inhibition at 20 ppm [8] | pest or weed control at 200 ppm [9] | pest or weed control at 200 ppm [4] | pest or weed control at 200 ppm (Pyrenophora teres) | inhibition at 20 ppm (Sclerotinia sclerotiorum) | inhibition at 20 ppm [5]

COc1ccc(Nc2cc(F)c(F)c(F)c2)nc1C(=O)NCC(C)(C)C [Compound P-145, N-(2,2-dimethylpropyl)-3-methoxy-6-(3,4,5-trifluoroanilino)pyridine-2-carboxamide]
≥ 80%: pest or weed control at 200 ppm (Alternaria solani) | inhibition at 20 ppm [6] | inhibition at 20 ppm [1] | pest or weed control at 200 ppm [2] | pest or weed control at 200 ppm [7] | inhibition at 20 ppm [3] | inhibition at 20 ppm [8] | pest or weed control at 200 ppm [9] | pest or weed control at 200 ppm [4] | pest or weed control at 200 ppm (Pyrenophora teres) | inhibition at 20 ppm (Sclerotinia sclerotiorum) | inhibition at 20 ppm [5]

CCOc1ccc(Nc2cc(F)cc(F)c2)nc1C(=O)NC1CCC1(C)C (stereo not drawn) [Compound P-44, 6-(3,5-difluoroanilino)-N-(2,2-dimethylcyclobutyl)-3-ethoxy-pyridine-2-carboxamide]
≥ 80%: pest or weed control at 200 ppm (Alternaria solani) | inhibition at 20 ppm [1] | pest or weed control at 200 ppm [2] | pest or weed control at 200 ppm [7] | inhibition at 20 ppm [3] | inhibition at 20 ppm [8] | pest or weed control at 200 ppm [4] | pest or weed control at 200 ppm (Pyrenophora teres) | inhibition at 20 ppm (Sclerotinia sclerotiorum) | inhibition at 20 ppm [5]

COc1ccc(Nc2cc(F)cc(F)c2)nc1C(=O)NC1(C#N)CCCC1 [Compound P-123, N-(1-cyanocyclopentyl)-6-(3,5-difluoroanilino)-3-methoxy-pyridine-2-carboxamide]
≥ 80%: inhibition at 20 ppm [1] | pest or weed control at 200 ppm [2] | inhibition at 20 ppm [3] | pest or weed control at 200 ppm [9] | pest or weed control at 200 ppm [4] | inhibition at 20 ppm (Sclerotinia sclerotiorum) | inhibition at 20 ppm [5]

CC1(C)CCC1NC(=O)c1nc(Nc2cnsc2)ccc1O (stereo not drawn) [Compound P-19, N-(2,2-dimethylcyclobutyl)-3-hydroxy-6-(isothiazol-4-ylamino)pyridine-2-carboxamide]
≥ 80%: inhibition at 20 ppm [1] | inhibition at 20 ppm [3] | inhibition at 20 ppm [8] | inhibition at 20 ppm (Sclerotinia sclerotiorum) | inhibition at 20 ppm [5]

COc1ccc(Nc2cc(F)cc(C#N)c2)nc1C(=O)NC(C)(C)C [Compound P-147, N-tert-butyl-6-(3-cyano-5-fluoro-anilino)-3-methoxy-pyridine-2-carboxamide]
≥ 80%: pest or weed control at 200 ppm (Alternaria solani) | inhibition at 20 ppm [1] | pest or weed control at 200 ppm [2] | inhibition at 20 ppm [3] | pest or weed control at 200 ppm [9] | pest or weed control at 200 ppm [4] | pest or weed control at 200 ppm (Pyrenophora teres) | inhibition at 20 ppm (Sclerotinia sclerotiorum) | inhibition at 20 ppm [5]

COc1ccc(Nc2cc(F)cc(F)c2)nc1C(=O)NCC1(C)CCOC2(CCC2)C1 (stereo not drawn) [Compound P-67, 6-(3,5-difluoroanilino)-3-methoxy-N-[(8-methyl-5-oxaspiro[3.5]nonan-8-yl)methyl]pyridine-2-carboxamide]
≥ 80%: pest or weed control at 200 ppm (Alternaria solani) | inhibition at 20 ppm [1] | pest or weed control at 200 ppm [2] | inhibition at 20 ppm [3] | inhibition at 20 ppm [8] | pest or weed control at 200 ppm [4] | inhibition at 20 ppm (Sclerotinia sclerotiorum) | inhibition at 20 ppm [5]

COc1ccc(Nc2cc(F)cc(F)c2)nc1C(=O)NC1(C(C)(C)C)CCC1 [Compound P-180, N-(1-tert-butylcyclobutyl)-6-(3,5-difluoroanilino)-3-methoxy-pyridine-2-carboxamide]
≥ 80%: pest or weed control at 200 ppm (Alternaria solani) | inhibition at 20 ppm [1] | pest or weed control at 200 ppm [2] | pest or weed control at 200 ppm [7] | inhibition at 20 ppm [3] | inhibition at 20 ppm [8] | pest or weed control at 200 ppm [9] | pest or weed control at 200 ppm [4] | pest or weed control at 200 ppm (Pyrenophora teres) | inhibition at 20 ppm (Sclerotinia sclerotiorum) | inhibition at 20 ppm [5]

COc1ccc(Nc2cc(F)cc(F)c2)nc1C(=O)NCCc1ccc(OC(F)(F)F)cc1 [Compound P-74, 6-(3,5-difluoroanilino)-3-methoxy-N-[2-[4-(trifluoromethoxy)phenyl]ethyl]pyridine-2-carboxamide]
≥ 80%: pest or weed control at 200 ppm (Alternaria solani) | inhibition at 20 ppm [1] | pest or weed control at 200 ppm [2] | inhibition at 20 ppm [3] | inhibition at 20 ppm [8] | pest or weed control at 200 ppm [4] | inhibition at 20 ppm (Sclerotinia sclerotiorum) | inhibition at 20 ppm [5]
